Source: patent US11203600B2 (Denali Therapeutics Inc., priority 2017, dated 2021)

Biological target: GST-hRIPK1 (8-327) (Homo sapiens (Human), UniProt Q13546)
Assay: Fluorescent Polarization Binding (FP Binding) assay, RIPK1
Conditions: 10 nM GST-hRIPK1 (8-327), 5 nM fluorescent-labeled ligand, RT, 30 min, mean of at least two independent experiments
Protocol: Fluorescent Polarization Binding (FP Binding) assay (Berger S. B. et al. (2015) Cell Death Discovery, 1: 15009; Maki J. L. et al. (2012) Anal Biochem., 427(2): 164-174) was performed in polystyrene low volume 384-well black plate, at RT in a final volume of 10.1 μl/well using 10 nM of GST-hRIPK1 (8-327) enzyme and 5 nM of fluorescent-labeled ligand (14-(2-{[3-({2-{[4-(cyanomethyl)phenyl]amino]-6-[(5-cyclopropyl-1H-pyrazol-3-yl)amino]-4-pyrimidinyl}amino) propyl}amino}-2-oxoethyl)-16,16,18,18-tetramethyl-6,7,7a,8a,9,10,16,18-octahydrobenzo [2″,3″]indolizino[8″,7″:5′,6′]pyrano [3′,2′:3,4]pyrido[1,2-a]indo1-5-ium-2-sulfonate.
Test compounds were serially diluted in DMSO at 100 fold final concentrations in the assay (1% DMSO final). In each well of a 384-well Plate were dispensed 0.1 μL of compound solution (or DMSO for controls) followed by 5 μL of GST-hRIPK1 (8-327) at twice the final concentrations in assay buffer (50 mM HEPES pH 7.5, 10 mM NaCl, 50 mM MgCl2, 0.02% CHAPS, 0.5 mM DTT and 0.01% Pluronic F127). For negative control the enzyme addition was replaced by assay buffer only.
After addition of 5 μL of fluorescentlabeled ligand at twice the final concentrations in assay buffer, the plate was incubated at RT for […]. At the end, the binding was measured as FP value with the Envision (PerkinElmer) plate reader using filter for an excitation λ=531 nm FP and an emission λ=595 nm FP (S & P-pol). GST-hRIPK1 (8-327) enzyme was produced via Baculovirus expression.
Test compound inhibition was expressed as percent inhibition of internal assay controls. For concentration response curves, normalized data is fit and IC50 determined using XL-fit (IDBS) for Excel. The IC50 values were averaged to determine a mean value, for a minimum of two independent experiments. Results are shown in Table 2 (RIPK1 IC50) values: +++=0.1 nM<IC50<100 nM; ++=100 nM<IC50<1 μM; +=1 μM<IC50).

Chain of GST-hRIPK1 (8-327) (Q13546 8-327): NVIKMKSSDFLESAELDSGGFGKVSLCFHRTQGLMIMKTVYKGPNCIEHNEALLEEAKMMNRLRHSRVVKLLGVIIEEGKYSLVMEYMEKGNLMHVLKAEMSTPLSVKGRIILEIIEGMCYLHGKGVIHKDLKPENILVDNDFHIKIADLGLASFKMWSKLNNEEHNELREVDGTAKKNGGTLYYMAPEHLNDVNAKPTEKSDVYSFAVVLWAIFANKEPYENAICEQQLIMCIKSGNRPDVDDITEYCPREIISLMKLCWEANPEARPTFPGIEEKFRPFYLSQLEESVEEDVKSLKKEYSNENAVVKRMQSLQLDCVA

| SMILES | IC50 [nM] |
| --- | --- |
| CC(C)(C(=O)N1CCOc2c(C#N)cccc2C1)C1CC1 [Example 26, 4-(2-cyclopropyl-2-methyl-propanoyl)-3,5-dihydro-2H-1,4-benzoxazepine-9-carbonitrile] | 0.1 to 100 |
| CC(C)(C(=O)N1CCOc2cccc(C#N)c2C1)C(F)F [Example 27, 4-(3,3-difluoro-2,2-dimethyl-propanoyl)-3,5-dihydro-2H-1,4-benzoxazepine-6-carbonitrile] | > 1000 |
| CC(C)(C(=O)N1CCOc2cc(C#N)ccc2C1)C(F)F [Example 28, 4-(3,3-difluoro-2,2-dimethyl-propanoyl)-3,5-dihydro-2H-1,4-benzoxazepine-8-carbonitrile] | 100 to 1000 |
| CC(C)(C(=O)N1CCOc2c(C#N)cncc2C1)C(F)F [Example 29, 4-(3,3-difluoro-2,2-dimethyl-propanoyl)-3,5-dihydro-2H-pyrido[3,4-f][1,4]oxazepine-9-carbonitrile] | 0.1 to 100 |
| CC(C)(C(=O)N1CCOc2c(C#N)cncc2C1)C1CC1 [Example 30, 4-(2-cyclopropyl-2-methyl-propanoyl)-3,5-dihydro-2H-pyrido[3,4-f][1,4]oxazepine-9-carbonitrile] | 0.1 to 100 |
| CC(C)(CC#N)C(=O)N1CCOc2c(C#N)cncc2C1 [Example 31, 4-(3-cyano-2,2-dimethyl-propanoyl)-3,5-dihydro-2H-pyrido[3,4-f][1,4]oxazepine-9-carbonitrile] | 100 to 1000 |
| CCC(C)(C)C(=O)N1CCOc2ccc(F)cc2C1 [Example 32, 1-(7-fluoro-2,3,4,5-tetrahydro-1,4-benzoxazepin-4-yl)-2,2-dimethylbutan-1-one] | 0.1 to 100 |
| CC(C)(C(=O)N1CCOc2ccc(F)cc2C1)C(F)F [Example 33, 3,3-difluoro-1-(7-fluoro-2,3,4,5-tetrahydro-1,4-benzoxazepin-4-yl)-2,2-dimethylpropan-1-one] | 0.1 to 100 |
| CC(C)(C(=O)N1CCOc2ncccc2C1)C(F)F [Example 34, 1-(2,3-dihydropyrido[3,2-f][1,4]oxazepin-4(5H)-yl)-3,3-difluoro-2,2-dimethylpropan-1-one] | > 1000 |
| CC(C)(C(=O)N1CCOc2ccncc2C1)C(F)F [Example 35, 1-(2,3-dihydropyrido[3,4-f][1,4]oxazepin-4(5H)-yl)-3,3-difluoro-2,2-dimethylpropan-1-one] | 100 to 1000 |
| CC1CN(C(=O)C(C)(C)C(F)F)Cc2ccccc2O1 (centres unmarked) [Example 36, 3,3-difluoro-2,2-dimethyl-1-(2-methyl-2,3-dihydrobenzo[f][1,4]oxazepin-4(5H)-yl)propan-1-one] | > 1000 |
| CC(C)(C(=O)N1CCOc2c(Br)cc(F)cc2C1)C(F)F [Example 37, 1-(9-bromo-7-fluoro-3,5-dihydro-2H-1,4-benzoxazepin-4-yl)-3,3-difluoro-2,2-dimethyl-propan-1-one] | 100 to 1000 |
| CC(C)(C(=O)N1Cc2ccccc2CCO1)C(F)F [Example 38, 3,3-difluoro-2,2-dimethyl-1-(1,2,4,5-tetrahydro-3,2-benzoxazepin-2-yl)propan-1-one] | > 1000 |
| O=C(C1CCN(c2ncc(F)cn2)CC1)N1Cc2ccccc2CCO1 [Example 39, 2-[1-(5-fluoropyrimidin-2-yl)piperidine-4-carbonyl]-1,2,4,5-tetrahydro-3,2-benzoxazepine] | 100 to 1000 |
| CC1(C(=O)N2CCOc3c(C#N)cncc3C2)CCN(c2ncc(F)cn2)CC1 [Example 40, 4-[1-(5-fluoropyrimidin-2-yl)-4-methyl-piperidine-4-carbonyl]-3,5-dihydro-2H-pyrido[3,4-f][1,4]oxazepine-9-carbonitrile] | 0.1 to 100 |
| CC1(C(=O)N2CCOc3c(C#N)cncc3C2)CCOCC1 [Example 41, 4-(4-methyltetrahydropyran-4-carbonyl)-3,5-dihydro-2H-pyrido[3,4-f][1,4]oxazepine-9-carbonitrile] | 100 to 1000 |
| CC1(C(=O)N2CCOc3c(C#N)cncc3C2)CCOC1 (centres unmarked) [Example 42, 4-(3-methyltetrahydrofuran-3-carbonyl)-3,5-dihydro-2H-pyrido[3,4-f][1,4]oxazepine-9-carbonitrile] | 100 to 1000 |
| COC(C)(C)C(=O)N1CCOc2c(C#N)cncc2C1 [Example 43, 4-(2-methoxy-2-methyl-propanoyl)-3,5-dihydro-2H-pyrido[3,4-f][1,4]oxazepine-9-carbonitrile] | 100 to 1000 |

| SMILES | IC50 [nM] |
| --- | --- |
| N#Cc1cncc2c1OCCN(C(=O)C13CC(C1)C3)C2 [Example 44, 4-(bicyclo[1.1.1]pentane-3-carbonyl)-3,5-dihydro-2H-pyrido[3,4-f][1,4]oxazepine-9-carbonitrile] | > 1000 |
| CC(C)(C(=O)N1CCOc2c(C#N)cncc2C1)C(F)(F)F [Example 45, 4-(3,3,3-trifluoro-2,2-dimethyl-propanoyl)-3,5-dihydro-2H-pyrido[3,4-f][1,4]oxazepine-9-carbonitrile] | 0.1 to 100 |
| N#Cc1cncc2c1OCCN(C(=O)C1(C3CC3)CC1)C2 [Example 46, 4-(1-cyclopropylcyclopropanecarbonyl)-3,5-dihydro-2H-pyrido[3,4-f][1,4]oxazepine-9-carbonitrile] | 100 to 1000 |
| CC(C)(CC(F)(F)F)C(=O)N1CCOc2c(C#N)cncc2C1 [Example 47, 4-(4,4,4-trifluoro-2,2-dimethyl-butanoyl)-3,5-dihydro-2H-pyrido[3,4-f][1,4]oxazepine-9-carbonitrile] | 0.1 to 100 |
| N#Cc1cncc2c1OCCN(C(=O)C1(C(F)(F)F)CC1)C2 [Example 48, 4-[1-(trifluoromethyl)cyclopropanecarbonyl]-3,5-dihydro-2H-pyrido[3,4-f][1,4]oxazepine-9-carbonitrile] | 100 to 1000 |
| N#Cc1cncc2c1OCCN(C(=O)C1(C(F)F)CCC1)C2 [Example 49, 4-[1-(difluoromethyl)cyclobutanecarbonyl]-3,5-dihydro-2H-pyrido[3,4-f][1,4]oxazepine-9-carbonitrile] | 0.1 to 100 |
| CC1(C(=O)N2CCOc3c(C#N)cncc3C2)CC1(F)F (centres unmarked) [Example 50, 4-(2,2-difluoro-1-methyl-cyclopropanecarbonyl)-3,5-dihydro-2H-pyrido[3,4-f][1,4]oxazepine-9-carbonitrile] | 100 to 1000 |
| CC(C)(COC(F)(F)F)C(=O)N1CCOc2c(C#N)cncc2C1 [Example 51, 4-[2,2-dimethyl-3-(trifluoromethoxy)propanoyl]-3,5-dihydro-2H-pyrido[3,4-f][1,4]oxazepine-9-carbonitrile] | 0.1 to 100 |
| C[C@@H]1COc2c(C#N)cncc2CN1C(=O)C(C)(C)C(F)F [Example 52, (3R)-4-(3,3-difluoro-2,2-dimethyl-propanoyl)-3-methyl-3,5-dihydro-2H-pyrido[3,4-f][1,4]oxazepine-9-carbonitrile] | 0.1 to 100 |
| N#Cc1cncc2c1OCCN(C(=O)C1(C(F)(F)F)CCC1)C2 [Example 53, 4-[1-(trifluoromethyl)cyclobutanecarbonyl]-3,5-dihydro-2H-pyrido[3,4-f][1,4]oxazepine-9-carbonitrile] | 100 to 1000 |
| CCC(C)(C)C(=O)N1CCOc2c(C#N)cncc2C1 [Example 54, 4-(2,2-dimethylbutanoyl)-3,5-dihydro-2H-pyrido[3,4-f][1,4]oxazepine-9-carbonitrile] | 0.1 to 100 |
| CC(C)(C(=O)N1CCOc2c(F)cncc2C1)C(F)F [Example 55, 3,3-difluoro-1-(9-fluoro-3,5-dihydro-2H-pyrido[3,4-f][1,4]oxazepin-4-yl)-2,2-dimethyl-propan-1-one] | 100 to 1000 |
| CC(C(=O)N1CCOc2c(C#N)cncc2C1)(C(F)F)C1CC1 (centres unmarked) [Example 56, 4-(2-cyclopropyl-3,3-difluoro-2-methyl-propanoyl)-3,5-dihydro-2H-pyrido[3,4-f][1,4]oxazepine-9-carbonitrile] | 0.1 to 100 |
| CCC(C)(C(=O)N1CCOc2c(C#N)cncc2C1)C(F)F (centres unmarked) [Example 57, 4-(2-(difluoromethyl)-2-methylbutanoyl)-2,3,4,5-tetrahydropyrido[3,4-f][1,4]oxazepine-9-carbonitrile] | 0.1 to 100 |
| CC(C)(CC1CC1)C(=O)N1CCOc2c(C#N)cncc2C1 [Example 58, 4-(3-cyclopropyl-2,2-dimethyl-propanoyl)-3,5-dihydro-2H-pyrido[3,4-f][1,4]oxazepine-9-carbonitrile] | 100 to 1000 |
| CC(C)(C(=O)N1CCOc2c(cnc(Cl)c2C#N)C1)C(F)F [Example 59, 8-chloro-4-(3,3-difluoro-2,2-dimethyl-propanoyl)-3,5-dihydro-2H-pyrido[3,4-f][1,4]oxazepine-9-carbonitrile] | 100 to 1000 |
| CC(C)(CCF)C(=O)N1CCOc2c(C#N)cncc2C1 [Example 60, 4-(4-fluoro-2,2-dimethyl-butanoyl)-3,5-dihydro-2H-pyrido[3,4-f][1,4]oxazepine-9-carbonitrile] | 100 to 1000 |
